The nature of data set [1]: Aqueous solubility in the release medium. As to conditions: normal saline containing 20% PEG 400. The class given is physicochemical.
Data set [2] relates to CCC-ESF cells. The class given is cell-based, human. As to conditions: 30 min pre-incubation with inhibitor, vs. control. As for the experimental part:
(§1) Endocytosis mechanisms were assessed using cellular uptake assays in the presence of chemicals known to inhibit specific endocytosis pathways. Cells were incubated with CPZ, FLP, GNT, CCD, DMA, NaN3, or MS (at […], respectively) for 30 min at 37°C. After exposure to these inhibitors, 200 µL of C6-labeled NLCs was added to each well and incubated for 30 min. After the incubation, cells were prepared for flow cytometry as described earlier and the data for at least 20,000 cells were acquired. The cells treated with C6-labeled NLCs alone were considered as the control cells.

Data set [3] has as its system HaCaT cells. Kind of data set: Endocytic pathway: uptake of C6-labeled NLCs in presence of endocytosis inhibitors. Format: cell-based, human. As to conditions: 30 min pre-incubation with inhibitor, vs. control. As for the experimental part:
as §1

Data set [4] relates to rats. Details: method as in ref 5 = [5]; 5. Guan YZ Shi YB Wang H Summary on the advanced research of lappaconite hydrobromide Theory Pr Chin Med 2005 15 1838 1840. As to conditions: cited from earlier work.
In data set [5] the test system is mice. Details: method as in ref 5 = [5]; 5. Guan YZ Shi YB Wang H Summary on the advanced research of lappaconite hydrobromide Theory Pr Chin Med 2005 15 1838 1840. As to conditions: cited from earlier work.
Details of data set [6]: method as in ref 6 = [6]; 6. Liang ZF Lyu YP Yuan W Liu YL Zhu XC Dose-effect relationship of lappaconitine Chin Pharmacol Bull 1993 9 146. As to conditions: per os; cited from earlier work.

≈ marks a conversion by molar mass, not a printed value. Counter-ions that a name gives are not always drawn.

Results on nine compounds are retold here after publication PMC4496826, “Nanostructured lipid carriers for percutaneous administration of alkaloids isolated from Aconitum sinomontanum” (Journal of Nanobiotechnology, 2015).

For `CCN1C[C@]2(OC(=O)c3ccccc3NC(C)=O)CC[C@H](OC)C34C1C(O)(C[C@@H]32)[C@@]1(O)C[C@H](OC)[C@H]2C[C@@H]4[C@]1(O)[C@H]2OC` [RAN, ranaconitine], the “aqueous solubility in the medium” value in data set [1] is given as 582.06 ± 16.27 µg/mL (≈ 969 µM). `CN(C)CCCN1c2ccccc2Sc2ccc(Cl)cc21` [CPZ, chlorpromazine]: in data set [2], the “effect on internalization/uptake of C6-labeled NLCs” value (from here on “effect on internalization/uptake”) is listed as “did not significantly affect”. Regarding `CCCCC[C@@H](O)[C@H]1C(=O)O[C@H](C)[C@@H](O)/C=C/C=C/C=C/C=C/C=C(\C)[C@@H](O)C[C@H](O)C[C@H](O)C[C@H](O)C[C@H](O)C[C@H](O)C[C@@H]1O` [FLP, filipin III], the “effect on internalization/uptake” value in data set [2] is “significantly inhibited”. Moreover, in data set [3], the “effect on uptake of C6-labeled NLCs (average fluorescence intensity)” value is given as “significantly reduced”. Consider `CN(C)c1nc(N)c(C(=O)NC(=N)N)nc1Cl` [DMA, 5-(N,N-dimethyl)-amiloride hydrochloride], for which the “effect on internalization/uptake” value in data set [2] is listed as “did not significantly affect”.

Take monensin sodium [MS]: the “effect on internalization/uptake” value in data set [2] is “did not significantly affect”. Still for that read-out and setting: the result for `O=c1c(-c2ccc(O)cc2)coc2cc(O)cc(O)c12` [GNT, genistein] reads “did not significantly affect”; that for `C=C1[C@@H](C)[C@H]2[C@H](Cc3ccccc3)NC(=O)[C@]23[C@H](OC(C)=O)/C=C/[C@@](C)(O)C(=O)[C@@H](C)C/C=C/[C@H]3[C@@H]1O` [CCD, cytochalasin D], “significantly inhibited”.

`CCN1C[C@]2(OC(=O)c3ccccc3NC(C)=O)CC[C@H](OC)[C@@]34[C@@H]2C[C@@H]([C@@H]13)[C@@]1(O)C[C@H](OC)[C@H]2C[C@@H]4[C@]1(O)[C@H]2OC` [LA, lappaconitine]: the “aqueous solubility in the medium” value in data set [1] worked out at 849.79 ± 36.95 µg/mL (≈ 1450 µM). In addition, the “oral LD50” value in data set [4] is listed as 20 mg/kg; in data set [5], 32.4 mg/kg. Further, the “certain safety factor (CSF)” value in data set [6] is 1.01. For the same compound, the “standard safety margin (SSM)” value in data set [6] is listed as 1.0%. Regarding `[N-]=[N+]=[N-].[Na+]` [NaN3, sodium azide], the “effect on internalization/uptake” value in data set [2] was “did not significantly affect”.
